A word on the mass density: it is mass per unit of volume. A word on the viscosity: it is the resistance of a fluid to flow. One may read the speed of sound as how fast a sound wave travels through the sample.

Where “and” joins values, the source holds several entries; their conditions need not be identical. Equal values may be shown once. ± gives the expanded uncertainty stated by the source.

For data set [1] the following is noted: 101.33 kPa, Liquid; for speed of sound: Sing-around technique in a fixed-path interferometer.
Data set [2] in a line: xn = mol fraction of the nth substance listed. The settings on record: 101.33 kPa, Liquid, x2 = 0; for speed of sound: Sing-around technique in a fixed-path interferometer.

On to `CCCCCCCCCC` [decane], for which, in data set [1] (293.15 K), the mass density is 729.89 ± 0.8 kg/m3, the viscosity was determined as 0.911 ± 0.016 mPa·s and the speed of sound amounted to 1254 ± 1 m/s. Also, in data set [1] (298.15 K), the mass density was 726.12 ± 0.8 kg/m3, the viscosity came to 0.845 ± 0.015 mPa·s and the speed of sound worked out at 1235 ± 1 m/s. For the same molecule, in data set [1] (303.15 K), the mass density is on record as 722.33 ± 0.81 kg/m3, the viscosity was determined as 0.787 ± 0.014 mPa·s and the speed of sound stood at 1215 ± 1 m/s.
Take `CCCCCCCCCC` [decane] + CCCC(C)O: in data set [2] (293.15 K), the speed of sound stood at 1254 ± 1 m/s, the mass density was 729.89 ± 0.8 kg/m3 and the viscosity is reported as 0.911 ± 0.016 mPa·s. Moreover, in data set [2] (298.15 K), the speed of sound was 1235 ± 1 m/s, the mass density came to 726.12 ± 0.8 kg/m3 and the viscosity stood at 0.845 ± 0.015 mPa·s. For the same molecule, in data set [2] (303.15 K), the speed of sound is 1215 ± 1 m/s, the mass density is reported as 722.33 ± 0.81 kg/m3 and the viscosity is given as 0.787 ± 0.014 mPa·s.
Consider `CCCCCCCCCCCC` [dodecane], for which, in data set [1] (293.15 K), the mass density is listed as 748.54 ± 0.77 kg/m3, the viscosity turned out to be 1.454 ± 0.024 mPa·s and the speed of sound is 1297 ± 1 m/s. For the same molecule, in data set [1] (298.15 K), the mass density came to 744.9 ± 0.77 kg/m3, the viscosity turned out to be 1.327 ± 0.022 mPa·s and the speed of sound was determined as 1278 ± 1 m/s. In data set [1] (303.15 K), the mass density came to 741.27 ± 0.78 kg/m3, the viscosity was 1.219 ± 0.02 mPa·s and the speed of sound was 1259 ± 1 m/s.
As for `CCCCCCCCCCCC` [dodecane] + CCCC(C)O, in data set [2] (293.15 K), the speed of sound stood at 1297 ± 1 m/s, the mass density was determined as 748.54 ± 0.77 kg/m3 and the viscosity worked out at 1.454 ± 0.024 mPa·s. Besides, in data set [2] (298.15 K), the speed of sound is reported as 1278 ± 1 m/s, the mass density is 744.9 ± 0.77 kg/m3 and the viscosity was determined as 1.327 ± 0.022 mPa·s. Moreover, in data set [2] (303.15 K), the speed of sound is 1259 ± 1 m/s, the mass density was determined as 741.27 ± 0.78 kg/m3 and the viscosity is 1.219 ± 0.02 mPa·s.
As for `CCCCCCCC` [octane], in data set [1] (293.15 K), the mass density was 702.57 ± 0.78 kg/m3, the viscosity is listed as 0.538 ± 0.01 mPa·s and the speed of sound was 1193 ± 1 m/s. In data set [1] (298.15 K), the mass density came to 698.54 ± 0.79 kg/m3, the viscosity stood at 0.506 ± 0.009 mPa·s and the speed of sound amounted to 1173 ± 1 m/s. For the same molecule, in data set [1] (303.15 K), the mass density was determined as 694.49 ± 0.8 kg/m3, the viscosity is given as 0.478 ± 0.009 mPa·s and the speed of sound is 1152 ± 1 m/s.
Turning to `CCCCCCCC` [octane] + CCCC(C)O, in data set [2] (293.15 K), the speed of sound is reported as 1193 ± 1 m/s, the mass density was found to be 702.57 ± 0.78 kg/m3 and the viscosity is on record as 0.538 ± 0.01 mPa·s. For the same molecule, in data set [2] (298.15 K), the speed of sound is listed as 1173 ± 1 m/s, the mass density is on record as 698.54 ± 0.79 kg/m3 and the viscosity was 0.506 ± 0.009 mPa·s. Also, in data set [2] (303.15 K), the speed of sound is recorded as 1152 ± 1 m/s, the mass density is 694.49 ± 0.8 kg/m3 and the viscosity stood at 0.478 ± 0.009 mPa·s.
As for `CCCC(C)O` (stereo not drawn) [pentan-2-ol], the mass density in data set [1] (293.15 K) was 809.04 ± 0.99 kg/m3; in data set [1] (298.15 K) it was 805.01 ± 0.99 kg/m3 and 805 ± 0.99 kg/m3; in data set [1] (303.15 K), 800.9 ± 0.99 kg/m3. Moreover, the viscosity came to 4.001 ± 0.075 mPa·s in data set [1] (293.15 K), 3.273 ± 0.063 mPa·s in data set [1] (298.15 K) and 2.708 ± 0.053 mPa·s in data set [1] (303.15 K). The speed of sound in data set [1] (293.15 K) came to 1250 ± 2 m/s; in data set [1] (298.15 K), 1232 ± 2 m/s; in data set [1] (303.15 K), 1214 ± 2 m/s.
